Active and inactive are the calls of the source.
How the values were obtained:
Prothrombin = Prothrombin (Homo sapiens, UniProt P00734); experiment: Thrombin 1536 HTS Dose Response Confirmation. [Related pubchem assays: 1046 (Thrombin 1536 HTS; hits were confirmed in this assay)]; assay type: functional
[1] = biological target: Heat shock protein HSP 90-alpha (Homo sapiens, UniProt P07900); experiment: Luminescence-based dose response biochemical high throughput screening assay for inhibitors of the Heat Shock Protein 90 (HSP90). [Related pubchem assays: 1831 (Summary AID.), 1846 (Confirmation screen.), 1789 (Primary screen.)]
Caspase-3 = biological target: T1, Caspase-3 (Homo sapiens, UniProt P42574); assay type: functional;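 note: Dose-response selectivity test against caspase-3 for candidate inhibitors of sentrin-specific proteases (SENPs)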
T1 sequence (P42574 whole entry): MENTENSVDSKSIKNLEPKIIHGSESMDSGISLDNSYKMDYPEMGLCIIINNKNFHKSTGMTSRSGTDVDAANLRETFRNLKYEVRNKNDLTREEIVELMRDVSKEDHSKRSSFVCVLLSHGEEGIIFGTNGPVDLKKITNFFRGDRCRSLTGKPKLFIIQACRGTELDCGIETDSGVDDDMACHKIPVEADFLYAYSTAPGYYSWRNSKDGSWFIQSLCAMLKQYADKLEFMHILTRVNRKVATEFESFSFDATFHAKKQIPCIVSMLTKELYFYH

[2] = biological target: T2, Sentrin-specific protease 7 (Homo sapiens, UniProt Q9BQF6); assay type: functional;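 note: Luminescence-based dose-response confirmation of ultra-high-throughput screening hits, measuring inhibition of SENP7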
T2 sequence (Q9BQF6 whole entry): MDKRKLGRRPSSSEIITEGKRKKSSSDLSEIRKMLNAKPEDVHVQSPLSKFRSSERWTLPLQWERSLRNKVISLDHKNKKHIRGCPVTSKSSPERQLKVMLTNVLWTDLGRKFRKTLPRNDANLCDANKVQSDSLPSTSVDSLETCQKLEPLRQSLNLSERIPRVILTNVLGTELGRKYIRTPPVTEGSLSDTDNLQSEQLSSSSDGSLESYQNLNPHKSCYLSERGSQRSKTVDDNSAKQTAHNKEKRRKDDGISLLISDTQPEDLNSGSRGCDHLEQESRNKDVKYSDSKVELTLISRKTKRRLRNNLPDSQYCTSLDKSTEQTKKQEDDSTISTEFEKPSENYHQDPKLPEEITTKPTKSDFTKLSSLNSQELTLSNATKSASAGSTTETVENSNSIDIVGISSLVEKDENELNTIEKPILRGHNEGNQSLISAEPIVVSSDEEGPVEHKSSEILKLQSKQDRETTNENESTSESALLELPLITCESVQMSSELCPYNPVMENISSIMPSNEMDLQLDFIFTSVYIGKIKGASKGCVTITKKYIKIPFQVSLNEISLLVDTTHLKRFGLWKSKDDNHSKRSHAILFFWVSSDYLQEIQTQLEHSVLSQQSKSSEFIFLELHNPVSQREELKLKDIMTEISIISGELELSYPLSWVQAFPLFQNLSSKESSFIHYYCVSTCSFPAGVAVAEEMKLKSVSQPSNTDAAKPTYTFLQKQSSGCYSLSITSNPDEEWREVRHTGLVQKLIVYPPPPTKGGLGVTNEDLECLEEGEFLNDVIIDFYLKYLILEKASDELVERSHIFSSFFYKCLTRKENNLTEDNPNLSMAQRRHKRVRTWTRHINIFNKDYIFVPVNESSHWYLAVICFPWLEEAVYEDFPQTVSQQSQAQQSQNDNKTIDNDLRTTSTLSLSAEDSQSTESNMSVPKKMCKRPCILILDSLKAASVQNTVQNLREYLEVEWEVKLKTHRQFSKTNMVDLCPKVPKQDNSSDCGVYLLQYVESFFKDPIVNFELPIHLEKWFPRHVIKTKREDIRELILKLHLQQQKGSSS

[3] = biological target: T3, Sentrin-specific protease 6 (Homo sapiens, UniProt Q9GZR1); assay type: functional;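 note: Luminescence-based dose-response confirmatory assay of SENP6 inhibition, following up an ultra-high-throughput screen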
T3 sequence (Q9GZR1 whole entry): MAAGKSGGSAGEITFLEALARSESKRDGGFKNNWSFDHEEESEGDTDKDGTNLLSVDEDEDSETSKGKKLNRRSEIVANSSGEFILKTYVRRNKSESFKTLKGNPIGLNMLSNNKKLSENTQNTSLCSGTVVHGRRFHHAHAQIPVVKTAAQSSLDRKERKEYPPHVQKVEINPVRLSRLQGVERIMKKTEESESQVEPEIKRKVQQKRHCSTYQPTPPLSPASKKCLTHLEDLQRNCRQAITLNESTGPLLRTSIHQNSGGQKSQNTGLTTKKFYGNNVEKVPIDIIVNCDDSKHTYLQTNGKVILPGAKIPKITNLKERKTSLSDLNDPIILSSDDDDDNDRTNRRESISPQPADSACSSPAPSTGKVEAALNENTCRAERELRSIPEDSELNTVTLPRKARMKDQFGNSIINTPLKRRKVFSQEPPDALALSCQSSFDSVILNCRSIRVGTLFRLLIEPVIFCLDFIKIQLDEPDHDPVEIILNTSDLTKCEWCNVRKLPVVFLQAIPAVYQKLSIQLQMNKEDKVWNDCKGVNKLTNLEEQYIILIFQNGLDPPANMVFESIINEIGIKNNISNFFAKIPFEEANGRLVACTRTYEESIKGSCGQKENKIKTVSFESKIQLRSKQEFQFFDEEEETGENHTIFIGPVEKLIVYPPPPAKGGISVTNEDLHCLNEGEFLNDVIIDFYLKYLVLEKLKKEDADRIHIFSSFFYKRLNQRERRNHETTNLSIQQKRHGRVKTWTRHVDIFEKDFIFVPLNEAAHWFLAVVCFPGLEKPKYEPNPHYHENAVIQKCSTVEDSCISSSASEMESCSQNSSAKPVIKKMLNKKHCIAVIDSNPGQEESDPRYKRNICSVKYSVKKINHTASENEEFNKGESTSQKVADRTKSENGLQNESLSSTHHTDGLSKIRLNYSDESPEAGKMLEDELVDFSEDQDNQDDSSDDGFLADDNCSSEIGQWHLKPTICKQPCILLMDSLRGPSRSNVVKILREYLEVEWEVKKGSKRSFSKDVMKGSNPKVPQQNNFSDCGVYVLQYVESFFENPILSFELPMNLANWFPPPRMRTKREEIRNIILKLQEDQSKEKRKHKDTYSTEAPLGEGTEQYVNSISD

[4] = biological target: T4, Sentrin-specific protease 8 (Homo sapiens, UniProt Q96LD8); assay type: functional;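 note: luminescence read-out of SENP8 inhibition, dose-response confirmation following an ultra-high-throughput screen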
T4 sequence (Q96LD8 whole entry): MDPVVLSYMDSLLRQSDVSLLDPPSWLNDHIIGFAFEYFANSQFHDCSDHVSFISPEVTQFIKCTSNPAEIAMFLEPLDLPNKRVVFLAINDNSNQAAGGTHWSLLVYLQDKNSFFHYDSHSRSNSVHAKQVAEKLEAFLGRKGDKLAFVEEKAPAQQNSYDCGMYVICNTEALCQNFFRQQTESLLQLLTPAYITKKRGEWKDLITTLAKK

[5] = biological target: Luciferin 4-monooxygenase (Photinus pyralis, UniProt P08659); experiment: Counter Screen for Luciferase-based Assay Positives. [Related pubchem assays: 620, 618, 411 ]
Chain of Luciferin 4-monooxygenase (P08659 whole entry): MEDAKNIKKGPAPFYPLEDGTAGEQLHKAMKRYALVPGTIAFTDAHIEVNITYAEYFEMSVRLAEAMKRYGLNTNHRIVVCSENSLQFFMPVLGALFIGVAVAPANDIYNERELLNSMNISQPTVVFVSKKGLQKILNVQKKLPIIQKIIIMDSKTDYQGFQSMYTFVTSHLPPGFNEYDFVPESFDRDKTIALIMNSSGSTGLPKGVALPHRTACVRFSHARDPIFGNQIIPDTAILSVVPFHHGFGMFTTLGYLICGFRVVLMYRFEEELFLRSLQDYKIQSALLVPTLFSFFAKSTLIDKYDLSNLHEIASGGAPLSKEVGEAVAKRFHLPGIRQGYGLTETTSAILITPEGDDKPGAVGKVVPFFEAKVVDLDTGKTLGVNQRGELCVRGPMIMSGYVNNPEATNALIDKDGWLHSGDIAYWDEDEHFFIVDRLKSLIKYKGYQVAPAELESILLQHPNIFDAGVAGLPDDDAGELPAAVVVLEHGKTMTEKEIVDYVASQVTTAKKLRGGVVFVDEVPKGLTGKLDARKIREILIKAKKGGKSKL

HT-1080 = experiment: cytotoxicity in HT1080 fibrosarcoma cells, cell-based, fluorescence readout (AID 620); assay type: functional; details: Homo sapiens
Leucine aminopeptidase = biological target: T5, Leucine aminopeptidase (Plasmodium falciparum 3D7, UniProt Q8IL11); experiment: P. falciparum M17LAP inhibitors, primary screen, biochemical, fluorogenic H-Leu-NHMec substrate, 1536-well (AID 1619); assay type: functional
T5 sequence (Q8IL11 whole entry): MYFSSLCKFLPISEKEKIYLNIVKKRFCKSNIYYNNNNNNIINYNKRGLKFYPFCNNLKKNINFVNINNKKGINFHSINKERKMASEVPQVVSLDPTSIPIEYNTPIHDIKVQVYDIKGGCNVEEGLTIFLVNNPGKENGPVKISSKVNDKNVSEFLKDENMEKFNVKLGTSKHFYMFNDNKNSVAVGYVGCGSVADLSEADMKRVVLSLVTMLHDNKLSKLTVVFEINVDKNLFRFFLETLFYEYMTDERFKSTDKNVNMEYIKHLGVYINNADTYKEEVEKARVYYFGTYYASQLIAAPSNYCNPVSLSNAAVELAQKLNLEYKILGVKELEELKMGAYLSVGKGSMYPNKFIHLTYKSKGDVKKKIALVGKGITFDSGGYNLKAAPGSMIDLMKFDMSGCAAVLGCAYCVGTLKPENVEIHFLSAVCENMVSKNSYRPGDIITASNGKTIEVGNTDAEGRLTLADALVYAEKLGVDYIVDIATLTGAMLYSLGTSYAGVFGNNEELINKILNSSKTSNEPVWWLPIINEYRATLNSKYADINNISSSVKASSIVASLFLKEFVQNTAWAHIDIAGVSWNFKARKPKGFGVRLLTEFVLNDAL

Aspartyl aminopeptidase = biological target: T6, Aspartyl aminopeptidase (Plasmodium falciparum 3D7, UniProt Q8I2J3); experiment: Counterscreen for inhibitors of M1 and M17 aminopeptidases: QFRET-based biochemical high throughput dose response assay for inhibitors of the Plasmodium falciparum M18 Aspartyl Aminopeptidase (PFM18AAP). [Related PubChem assays: 1619 (Screening assay (M17LAP inhibitors).), 1445 (Screening assay (M1AAP inhibitors).)]
T6 sequence (Q8I2J3 whole entry): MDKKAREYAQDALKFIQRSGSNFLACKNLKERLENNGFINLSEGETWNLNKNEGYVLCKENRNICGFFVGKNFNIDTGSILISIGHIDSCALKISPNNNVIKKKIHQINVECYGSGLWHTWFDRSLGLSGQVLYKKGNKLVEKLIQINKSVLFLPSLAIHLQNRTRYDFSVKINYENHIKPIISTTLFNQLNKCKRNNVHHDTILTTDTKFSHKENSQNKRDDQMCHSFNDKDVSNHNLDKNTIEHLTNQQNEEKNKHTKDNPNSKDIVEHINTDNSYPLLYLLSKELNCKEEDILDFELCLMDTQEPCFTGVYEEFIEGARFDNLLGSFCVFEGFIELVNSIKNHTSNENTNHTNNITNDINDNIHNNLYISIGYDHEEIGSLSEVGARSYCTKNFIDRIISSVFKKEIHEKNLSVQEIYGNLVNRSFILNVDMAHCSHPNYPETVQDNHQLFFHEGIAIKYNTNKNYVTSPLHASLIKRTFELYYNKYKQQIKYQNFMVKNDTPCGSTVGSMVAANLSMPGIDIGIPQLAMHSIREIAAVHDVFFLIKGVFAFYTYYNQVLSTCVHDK

Procathepsin L = Procathepsin L (Homo sapiens, UniProt P07711); experiment: cathepsin L inhibitors, dose response, counter-screen for M1/M17 aminopeptidase inhibitor project, biochemical, QFRET, 1536-well (AID 2214)
Chain of Procathepsin L (P07711 whole entry): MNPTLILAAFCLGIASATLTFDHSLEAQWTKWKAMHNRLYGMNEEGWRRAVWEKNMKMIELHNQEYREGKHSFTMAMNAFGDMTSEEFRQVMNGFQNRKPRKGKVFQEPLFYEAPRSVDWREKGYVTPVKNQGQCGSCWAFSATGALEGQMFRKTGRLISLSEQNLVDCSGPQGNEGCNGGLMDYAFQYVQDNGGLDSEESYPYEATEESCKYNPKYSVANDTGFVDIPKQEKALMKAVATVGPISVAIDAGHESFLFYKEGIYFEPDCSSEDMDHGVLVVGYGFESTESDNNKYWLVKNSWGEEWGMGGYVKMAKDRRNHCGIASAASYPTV

[6] = biological target: Glyceraldehyde-3-phosphate dehydrogenase (Homo sapiens, UniProt P04406)
Chain of Glyceraldehyde-3-phosphate dehydrogenase (P04406 whole entry): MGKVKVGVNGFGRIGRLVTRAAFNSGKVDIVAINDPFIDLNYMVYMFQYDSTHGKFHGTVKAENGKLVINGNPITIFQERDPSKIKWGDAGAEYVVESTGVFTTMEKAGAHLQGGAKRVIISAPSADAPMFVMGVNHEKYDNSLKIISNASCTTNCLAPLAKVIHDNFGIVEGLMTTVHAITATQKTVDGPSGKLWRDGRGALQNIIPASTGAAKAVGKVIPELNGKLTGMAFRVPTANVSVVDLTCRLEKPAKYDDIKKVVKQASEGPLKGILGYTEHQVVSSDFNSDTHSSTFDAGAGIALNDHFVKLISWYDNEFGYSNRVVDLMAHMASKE

[7] = biological target: T7, Heat shock factor protein 1 (Mus musculus, UniProt P38532); experiment: inhibition of MG132-induced HSE-luciferase signal, confirmation, cell-based, NIH3T3, luminescence, dose retest (AID 2382); assay type: functional;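 note: NIH3T3 fibroblasts with HSF1-driven luciferase reporter stressed by proteasome inhibitor MG132; luminescence from HSF1-driven luciferase expression after 8 hours of MG132 stress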
T7 sequence (P38532 whole entry): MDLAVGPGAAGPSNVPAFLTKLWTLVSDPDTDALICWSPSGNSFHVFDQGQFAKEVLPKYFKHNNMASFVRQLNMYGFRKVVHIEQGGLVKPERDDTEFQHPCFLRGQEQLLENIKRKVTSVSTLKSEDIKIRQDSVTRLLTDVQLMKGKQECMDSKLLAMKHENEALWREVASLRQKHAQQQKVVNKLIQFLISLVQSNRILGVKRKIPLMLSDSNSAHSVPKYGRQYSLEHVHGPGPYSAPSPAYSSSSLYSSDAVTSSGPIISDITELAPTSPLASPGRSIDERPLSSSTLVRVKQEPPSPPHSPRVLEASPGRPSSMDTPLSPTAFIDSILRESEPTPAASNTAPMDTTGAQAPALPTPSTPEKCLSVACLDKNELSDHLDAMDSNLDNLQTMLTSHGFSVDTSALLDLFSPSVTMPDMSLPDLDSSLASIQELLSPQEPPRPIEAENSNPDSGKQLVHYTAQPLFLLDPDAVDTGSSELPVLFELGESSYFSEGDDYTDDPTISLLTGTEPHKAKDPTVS

[8] = cytotoxicity in HEK-293T cells, dose response, cytotoxicity control for BCR NF-kB inhibitor project, luminescence, B-cell screen hits (AID 489021); assay type: functional, cell-based;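 note: HEK-293T cells carrying an NF-kB luciferase reporter; cells exposed to compound for about 14 hours before viability readout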
[9] = microbe, parasite or virus in culture; assay type: functional; details: Mycobacterium tuberculosis
[10] = HepG2 cell cytotoxicity, dose response, cytotoxicity control, plate reader, cherry-pick, antagonist series (AID 743416); assay type: functional, cell-based
[11] = LGR2 antagonists, dose response, cell-based, HEK293, CRE-luciferase reporter, cherry pick, set 2 (AID 743343); assay type: functional;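 note: transfected cells were stimulated with diluted bursicon conditioned medium after compound addition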
[12] = MC4R antagonists, dose response, counter-screen for LGR2 antagonist project, cell-based, plate reader, cherry pick (AID 743444); assay type: functional;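 note: transfected HEK 293 cells stimulated with alpha-MSH peptide; potency of inhibitors of the alpha-MSH evoked signal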
[13] = HEK293 cell cytotoxicity, dose response, cytotoxicity control, plate reader, cherry-picked samples (AID 743446); assay type: functional, cell-based

SMILES: O=C(CCC1CCCN(C(=O)C2(c3ccccc3)CC2)C1)N1CCN(c2ccccn2)CC1 (stereo not drawn)
- IC50 (Prothrombin): > 50 µM (not active)

SMILES: CN1C(=O)S/C(=C/c2ccc(OCc3cccc(C(=O)O)c3)cc2)C1=O
- IC50 [1]: > 20 µM (not active)
- IC50 (Caspase-3): 88.1 µM (active)
- IC50 [2]: 6.05 µM (active)
- IC50 [3]: 4.42 µM (active)
- IC50 [4]: 8.88 µM (active)

SMILES: Cc1cc(C)n(-c2nc3ccccc3nc2N2CCC(C)CC2)n1
- EC50 [5]: 1.01 µM (active)
- EC50 (HT-1080): > 50 µM (not active)

SMILES: Cc1ccc(Nc2nnc(SCC(=O)NC(Cc3c[nH]c4ccccc34)C(=O)O)s2)cc1 (stereo not drawn)
- IC50 (Leucine aminopeptidase): 3.25 µM (active)
- IC50 (Aspartyl aminopeptidase): > 73.5 µM (not active)
- IC50 (Procathepsin L): > 59.6 µM (not active)

SMILES: N#Cc1c(NC(=O)C2CC(Cl)=CCC2C(=O)O)sc2c1CCCC2 (stereo not drawn)
- IC50 (Leucine aminopeptidase): < 1 µM (active)
- IC50 (Aspartyl aminopeptidase): > 73.5 µM (not active)
- IC50 (Procathepsin L): > 59.6 µM (not active)

SMILES: O=C(O)CCSc1nc2ccccc2s1
- EC50 [5]: > 100 µM (not active)
- IC50 [6]: > 100 µM (not active)
- EC50 [7]: 6.83 µM (active)
- EC50 (HT-1080): > 50 µM (not active)
- IC50 [8]: > 80 µM (inactive)

SMILES: CC(C)(C)c1ccc(-c2nc(-c3ccncc3)no2)cc1
- EC50 [5]: 0.57 µM (active)
- CC50 [9]: 34.2 µM (active)
- EC50 (HT-1080): > 50 µM (not active)
- AC50 [10]: 30.1 µM (active)
- AC50 [11]: 12.9 µM (active)
- AC50 [12]: 20.8 µM (active)
- AC50 [13]: > 52 µM (inactive)

SMILES: CCC(=O)n1nc(-c2cccnc2)nc1NCc1ccccc1
- IC50 (Prothrombin): 0.0029 µM (active)

SMILES: CCCCN1C(=O)NC(=O)C2(Cc3c(nc4ccccn4c3=O)N3CCc4ccccc4C32)C1=O (stereo not drawn)
- IC50 (Prothrombin): 5.42 µM (active)

— ChEMBL document CHEMBL1201862, “PubChem BioAssay data set” (2004)
